From ChEMBL document CHEMBL4229471, “Antiprotozoal and cysteine proteases inhibitory activity of dipeptidyl enoates” (Bioorg Med Chem, 2018)
Activity calls are given as the source filed them. The rule behind the calls is not given here.

What was measured:
Cathepsin B [1] = molecular target: T1, Cathepsin B (Homo sapiens, UniProt P07858); assay: Inhibition of human cathepsin B at 20 uM using Cbz-Phe-Arg-AMC as substrate relative to control
Cruzipain = Cruzipain (Trypanosoma cruzi, UniProt P25779); assay: Inhibition of Trypanosoma cruzi cruzain
Chain of Cruzipain (P25779 whole entry): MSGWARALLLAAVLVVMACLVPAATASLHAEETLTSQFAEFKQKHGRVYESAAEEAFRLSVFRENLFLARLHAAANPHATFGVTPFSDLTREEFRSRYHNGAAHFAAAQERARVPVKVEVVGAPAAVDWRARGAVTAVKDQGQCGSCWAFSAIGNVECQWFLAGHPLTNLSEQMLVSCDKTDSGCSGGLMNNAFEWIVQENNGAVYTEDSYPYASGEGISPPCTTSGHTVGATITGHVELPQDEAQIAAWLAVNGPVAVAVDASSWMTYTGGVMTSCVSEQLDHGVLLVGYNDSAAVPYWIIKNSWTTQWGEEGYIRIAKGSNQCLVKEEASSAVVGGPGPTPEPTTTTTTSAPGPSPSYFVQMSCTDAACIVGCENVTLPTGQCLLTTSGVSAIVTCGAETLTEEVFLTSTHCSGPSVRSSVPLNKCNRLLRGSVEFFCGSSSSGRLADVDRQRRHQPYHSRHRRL

[2] = molecular target: Rhodesain (Trypanosoma brucei rhodesiense) (UniProt Q95PM0); assay: Inhibition of Trypanosoma brucei rhodesiense rhodesain assessed as second-order rate constant using Cbz-Phe-Arg-AMC as substrate measured for 30 mins by fluorescence method
Chain of Rhodesain (Trypanosoma brucei rhodesiense) (Q95PM0 1-450): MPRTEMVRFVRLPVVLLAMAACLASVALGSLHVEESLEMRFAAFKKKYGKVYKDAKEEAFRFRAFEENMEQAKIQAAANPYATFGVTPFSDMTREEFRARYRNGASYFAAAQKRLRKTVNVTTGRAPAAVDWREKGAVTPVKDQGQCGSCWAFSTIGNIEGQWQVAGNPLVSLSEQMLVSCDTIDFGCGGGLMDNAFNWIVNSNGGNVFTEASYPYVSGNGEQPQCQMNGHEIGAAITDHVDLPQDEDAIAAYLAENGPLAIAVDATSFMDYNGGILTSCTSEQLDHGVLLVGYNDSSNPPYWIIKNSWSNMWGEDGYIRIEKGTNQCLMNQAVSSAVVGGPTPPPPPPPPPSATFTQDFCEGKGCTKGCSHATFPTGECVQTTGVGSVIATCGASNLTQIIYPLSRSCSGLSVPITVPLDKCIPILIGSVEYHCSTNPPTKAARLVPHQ

Procathepsin L [3] = molecular target: T2, Procathepsin L (Homo sapiens, UniProt P07711); assay: Inhibition of human cathepsin L assessed as second order rate constant using Cbz-Phe-Arg-AMC as substrate
Target sequence in this assay (P07711 114-333 limits assumed): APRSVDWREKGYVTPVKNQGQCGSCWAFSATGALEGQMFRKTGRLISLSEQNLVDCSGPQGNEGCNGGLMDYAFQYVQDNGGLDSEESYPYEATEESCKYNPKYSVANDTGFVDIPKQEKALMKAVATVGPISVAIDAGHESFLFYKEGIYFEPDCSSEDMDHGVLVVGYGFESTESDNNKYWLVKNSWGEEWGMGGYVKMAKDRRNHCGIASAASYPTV

Cathepsin B [4] = molecular target: T1, Cathepsin B; assay: Inhibition of human cathepsin B using Cbz-Phe-Arg-AMC as substrate
Procathepsin L [5] = molecular target: T2, Procathepsin L; assay: Inhibition of human cathepsin L at 20 uM using Cbz-Phe-Arg-AMC as substrate relative to control
Target sequence in this assay (P07711 114-333 limits assumed): as above

[6] = molecular target: Cruzipain (Trypanosoma cruzi) (UniProt P25779); assay: Inhibition of Trypanosoma cruzi cruzain at 20 uM relative to control
Chain of Cruzipain (Trypanosoma cruzi) (P25779 123-467 limits assumed): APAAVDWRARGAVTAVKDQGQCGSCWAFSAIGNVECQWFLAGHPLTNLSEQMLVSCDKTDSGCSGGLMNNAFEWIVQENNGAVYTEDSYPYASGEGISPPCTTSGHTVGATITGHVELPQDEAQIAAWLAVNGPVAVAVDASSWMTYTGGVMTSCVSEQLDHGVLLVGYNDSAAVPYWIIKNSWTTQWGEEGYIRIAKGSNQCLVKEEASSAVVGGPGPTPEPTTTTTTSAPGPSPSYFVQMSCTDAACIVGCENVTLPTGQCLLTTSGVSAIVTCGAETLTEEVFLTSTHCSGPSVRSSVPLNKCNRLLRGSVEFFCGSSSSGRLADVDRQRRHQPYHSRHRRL

Cathepsin B [7] = molecular target: T1, Cathepsin B; assay: Inhibition of human cathepsin B assessed as second order rate constant using Cbz-Phe-Arg-AMC as substrate
[8] = molecular target: Cruzipain (Trypanosoma cruzi) (UniProt P25779); assay: Inhibition of Trypanosoma cruzi cruzain assessed as second-order rate constant
Rhodesain = Rhodesain (Trypanosoma brucei rhodesiense, UniProt Q95PM0); assay: Inhibition of Trypanosoma brucei rhodesiense rhodesain using Cbz-Phe-Arg-AMC as substrate measured for 30 mins by fluorescence method
Chain of Rhodesain (Q95PM0 whole entry): as the sequence (Q95PM0 1-450) above

Procathepsin L [9] = molecular target: T2, Procathepsin L; assay: Inhibition of human cathepsin L using Cbz-Phe-Arg-AMC as substrate
Target sequence in this assay (P07711 whole entry): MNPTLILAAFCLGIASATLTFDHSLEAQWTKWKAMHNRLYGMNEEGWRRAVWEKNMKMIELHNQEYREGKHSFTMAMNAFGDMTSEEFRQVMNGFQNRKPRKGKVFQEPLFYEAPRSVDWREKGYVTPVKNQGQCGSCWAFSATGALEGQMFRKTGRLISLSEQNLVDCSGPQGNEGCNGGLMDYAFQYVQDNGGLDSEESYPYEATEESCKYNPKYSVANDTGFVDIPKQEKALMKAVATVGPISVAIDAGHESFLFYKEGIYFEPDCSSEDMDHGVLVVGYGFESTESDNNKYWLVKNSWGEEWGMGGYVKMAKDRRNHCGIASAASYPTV

[10] = molecular target: Rhodesain (Trypanosoma brucei rhodesiense) (UniProt Q95PM0); assay: Inhibition of Trypanosoma brucei rhodesiense rhodesain at 20 uM using Cbz-Phe-Arg-AMC as substrate measured for 30 mins by fluorescence method relative to control
[11] = molecular target: T3, Falcipain 2 (Plasmodium falciparum) (UniProt Q9N6S8); assay: Inhibition of Plasmodium falciparum falcipain-2 at 20 uM using Cbz-Phe-Arg-AMC as substrate measured for 15 mins by spectrofluorimetric method relative to control
T3 sequence (whole entry): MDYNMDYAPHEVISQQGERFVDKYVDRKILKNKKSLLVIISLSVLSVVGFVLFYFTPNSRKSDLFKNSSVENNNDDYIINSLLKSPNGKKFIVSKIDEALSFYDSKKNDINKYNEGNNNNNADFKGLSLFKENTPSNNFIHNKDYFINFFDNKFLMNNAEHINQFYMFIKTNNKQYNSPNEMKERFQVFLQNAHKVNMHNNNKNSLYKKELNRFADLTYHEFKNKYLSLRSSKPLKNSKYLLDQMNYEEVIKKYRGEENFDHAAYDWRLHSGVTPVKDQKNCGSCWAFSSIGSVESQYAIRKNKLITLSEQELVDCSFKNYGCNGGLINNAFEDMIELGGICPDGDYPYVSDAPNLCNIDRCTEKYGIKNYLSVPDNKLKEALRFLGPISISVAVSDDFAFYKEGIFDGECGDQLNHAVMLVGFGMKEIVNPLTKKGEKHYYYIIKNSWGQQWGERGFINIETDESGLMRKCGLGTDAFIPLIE

Falcipain 2 = molecular target: T4, Falcipain 2 (Plasmodium falciparum, UniProt Q9N6S8); assay: Inhibition of Plasmodium falciparum falcipain-2 using Cbz-Phe-Arg-AMC as substrate measured for 15 mins by spectrofluorimetric method
T4 sequence (Q9N6S8 whole entry): T3 sequence (whole entry)

[12] = molecular target: T3, Falcipain 2 (Plasmodium falciparum); assay: Inhibition of Plasmodium falciparum falcipain-2 assessed as second-order rate constant using Cbz-Phe-Arg-AMC as substrate measured for 15 mins by spectrofluorimetric method
[13] = Cytotoxicity against human HepG2 cells assessed as cell viability at 1 uM measured after 24 hrs by spectrophotometric method relative to control; type: cell-based; details: read-out: Activity
Plasmodium falciparum = assay: Antimalarial activity against erythrocytic stage of synchronized Plasmodium falciparum Dd2 after 48 hrs by Picogreen dye based fluorescence assay; type: functional, organism-based; details: Dd2, 48 h
[14] = molecular target: Cruzipain (Trypanosoma cruzi) (UniProt P25779); assay: Irreversible inhibition of Trypanosoma cruzi cruzain pretreated for 30 mins followed by substrate addition and measured for 30 mins by dialysis method
[15] = molecular target: T3, Falcipain 2 (Plasmodium falciparum); assay: Irreversible inhibition of Plasmodium falciparum falcipain-2 using Cbz-Phe-Arg-AMC as substrate pretreated for 30 mins followed by substrate addition and measured for 30 mins by dialysis method
[16] = molecular target: Rhodesain (Trypanosoma brucei rhodesiense) (UniProt Q95PM0); assay: Irreversible inhibition of Trypanosoma brucei rhodesiense rhodesain using Cbz-Phe-Arg-AMC as substrate pretreated for 30 mins followed by substrate addition and measured for 30 mins by dialysis method
Trypanosoma cruzi = assay: Antitrypanosomal activity against Trypanosoma cruzi Tulahuen strain C2C4 amastigote forms harboring LacZ infected in rat L6 cells after 96 hrs by CPRG/Nonidet reagent based photometric method; type: functional, organism-based; details: Tulahuen strain C2C4, L6, 96 h
Leishmania donovani = assay: Antileishmanial activity against Leishmania donovani MHOM/ET/67/L82 axenic amastigotes after 70 hrs by alamar blue staining based fluorescence assay; type: functional, organism-based; details: MHOM/ET/67/L82, 70 h
[17] = test system: Trypanosoma brucei rhodesiense; assay: Antiprotozoal activity against patient derived Trypanosoma brucei rhodesiense STIB 900 bloodstream form after 70 hrs by Alamar Blue assay; type: functional, organism-based; details: STIB 900, 70 h

| SMILES | inhibition (Cathepsin B [1]) | IC50 (Cruzipain) | K [2] | K (Procathepsin L [3]) | IC50 (Cathepsin B [4]) | inhibition (Procathepsin L [5]) | inhibition [6] | K (Cathepsin B [7]) | K [8] | IC50 (Rhodesain) | IC50 (Procathepsin L [9]) | inhibition [10] | inhibition [11] | also measured |
| --- | --- | --- | --- | --- | --- | --- | --- | --- | --- | --- | --- | --- | --- | --- |
| CCOC(=O)/C=C/C(=O)[C@H](CC(C)C)NC(=O)[C@H](CC(C)C)NC(=O)N1CCOCC1 | 100% | 200 nM | 324000 M⁻¹ s⁻¹ | 52200 M⁻¹ s⁻¹ | 90 nM | 100% | 100% | 49500 M⁻¹ s⁻¹ | 10600 M⁻¹ s⁻¹ | 110 nM | 90 nM | 100% | – | – |
| CCOC(=O)/C=C/[C@H](O)[C@H](CCc1ccccc1)NC(=O)[C@H](Cc1ccccc1)NC(=O)OCc1ccccc1 | 35% | – | – | 77 M⁻¹ s⁻¹ | 52600 nM | 58% | 37% | 14 M⁻¹ s⁻¹ | – | – | 47000 nM | 32% | 22% | – |
| CCOC(=O)/C=C/[C@@H](O)[C@H](C)NC(=O)[C@H](Cc1ccccc1)NC(=O)OCc1ccccc1 | 26% | – | 11000 M⁻¹ s⁻¹ | 828 M⁻¹ s⁻¹ | – | 80% | 30% | – | – | 15100 nM | – | 63% | 41% | IC50 (Falcipain 2): 26800 nM; K [12]: 2700 M⁻¹ s⁻¹ |
| CCOC(=O)/C=C/C(=O)[C@H](C)NC(=O)[C@H](CC(C)C)NC(=O)OCc1ccccc1 | 100% | – | 14200 M⁻¹ s⁻¹ | 9800 M⁻¹ s⁻¹ | – | 99% | 99% | 85500 M⁻¹ s⁻¹ | 14400 M⁻¹ s⁻¹ | – | 500 nM | 99% | 98% | IC50 (Falcipain 2): 1200 nM; K [12]: 12000 M⁻¹ s⁻¹ |
| CCOC(=O)/C=C/C(=O)[C@H](CC(C)C)NC(=O)[C@H](Cc1ccccc1)NC(=O)OCc1ccccc1 | 100% | 20 nM | 1.61e+06 M⁻¹ s⁻¹ | 759000 M⁻¹ s⁻¹ | 50 nM | 100% | 100% | 138000 M⁻¹ s⁻¹ | 517000 M⁻¹ s⁻¹ | 20 nM | 10 nM | 100% | – | viability at 24 h, 1 µM [13]: 100%; IC50 (Plasmodium falciparum): 14900 nM |
| CCOC(=O)/C=C/C(=O)[C@H](CCc1ccccc1)NC(=O)[C@H](Cc1ccccc1)NC(=O)N1CCOCC1 | 100% | 300 nM | 142000 M⁻¹ s⁻¹ | 28500 M⁻¹ s⁻¹ | 70 nM | 100% | 100% | 97000 M⁻¹ s⁻¹ | 23400 M⁻¹ s⁻¹ | 150 nM | 180 nM | 100% | – | inhibition [14]: Active; viability at 24 h, 1 µM [13]: 100%; inhibition [15]: Active; inhibition [16]: Active; IC50 (Plasmodium falciparum): 6810 nM |
| CCOC(=O)/C=C/C(=O)[C@H](C)NC(=O)[C@H](Cc1ccccc1)NC(=O)OCc1ccccc1 | 100% | 300 nM | 6500 M⁻¹ s⁻¹ | 197000 M⁻¹ s⁻¹ | – | 100% | 100% | 47000 M⁻¹ s⁻¹ | 140000 M⁻¹ s⁻¹ | – | 80 nM | 100% | 99% | IC50 (Falcipain 2): 190 nM; K [12]: 28300 M⁻¹ s⁻¹ |
| CCOC(=O)/C=C/[C@@H](O)[C@H](CCc1ccccc1)NC(=O)[C@H](Cc1ccccc1)NC(=O)OCc1ccccc1 | 36% | – | 3200 to 3210 M⁻¹ s⁻¹ | 1100 M⁻¹ s⁻¹ | – | 57% | 18% | 772 to 800 M⁻¹ s⁻¹ | – | – | – | 63% | 41% | IC50 (Falcipain 2): 34400 nM; K [12]: 557 M⁻¹ s⁻¹ |
| CCOC(=O)/C=C/[C@H](O)[C@H](CCc1ccccc1)C(=O)N[C@@H](CC(C)C)C(=O)OC | 0% | – | – | – | – | 0% | – | – | – | – | – | 1% | 3% | – |
| CCOC(=O)/C=C/[C@H](O)[C@H](CCc1ccccc1)C(=O)N[C@@H](Cc1ccccc1)C(=O)OC | 0% | – | – | – | – | 0% | – | – | – | – | – | 4% | 9% | – |
| CCOC(=O)/C=C/[C@@H](O)[C@H](CCc1ccccc1)NC(=O)[C@H](Cc1ccccc1)NC(=O)N1CCOCC1 | 100% | – | 36700 M⁻¹ s⁻¹ | 1900 M⁻¹ s⁻¹ | – | 98% | 95% | 4190 to 4200 M⁻¹ s⁻¹ | 3600 M⁻¹ s⁻¹ | – | – | 99% | – | – |
| CCOC(=O)/C=C/C(=O)[C@H](CCc1ccccc1)NC(=O)[C@H](CC(C)C)NC(=O)N1CCOCC1 | 100% | 340 nM | 120000 M⁻¹ s⁻¹ | 19600 M⁻¹ s⁻¹ | 140 nM | 100% | – | 31400 M⁻¹ s⁻¹ | 5600 M⁻¹ s⁻¹ | 140 nM | 210 nM | 100% | – | viability at 24 h, 1 µM [13]: 100%; IC50 (Plasmodium falciparum): 17700 nM |
| CCOC(=O)/C=C/[C@H](O)[C@H](CCc1ccccc1)C(=O)N[C@@H](Cc1ccccc1)C(=O)OCc1ccccc1 | 25% | – | – | – | – | 0% | – | – | – | – | – | 6% | 5% | – |
| O=C(/C=C/[C@@H](O)[C@H](CCc1ccccc1)NC(=O)[C@H](Cc1ccccc1)NC(=O)OCc1ccccc1)NCc1ccccc1 | 9% | – | – | – | – | 17% | 41% | – | – | – | – | 1% | – | – |
| O=C(Cn1ccnc1[N+](=O)[O-])NCc1ccccc1 [BENZNIDAZOLE] | – | – | – | – | – | – | – | – | – | – | – | – | – | IC50 (Trypanosoma cruzi): 0.5 µg/mL |
| O=C(O)/C=C/[C@@H](O)[C@H](CCc1ccccc1)NC(=O)[C@H](Cc1ccccc1)NC(=O)OCc1ccccc1 | 15% | – | – | 882 M⁻¹ s⁻¹ | – | 47% | 12% | – | – | – | – | 24% | 24% | IC50 (Falcipain 2): 75000 nM; K [12]: 29 M⁻¹ s⁻¹ |
| CCOC(=O)/C=C/C(=O)[C@@H](CC(C)C)NC(=O)[C@H](Cc1ccccc1)NC(=O)OCc1ccccc1 | 100% | 20 nM | 1.53e+06 M⁻¹ s⁻¹ | 704000 M⁻¹ s⁻¹ | 60 nM | 100% | 100% | 117000 M⁻¹ s⁻¹ | 312000 M⁻¹ s⁻¹ | 30 nM | 10 nM | 100% | – | – |
| CCOC(=O)/C=C/C(=O)[C@H](CCc1ccccc1)NC(=O)[C@H](CC(C)C)NC(=O)OCc1ccccc1 | 100% | 80 nM | 116000 M⁻¹ s⁻¹ | 29900 M⁻¹ s⁻¹ | – | 100% | 100% | 42400 M⁻¹ s⁻¹ | 60800 M⁻¹ s⁻¹ | – | 260 nM | 98% | 98% | IC50 (Falcipain 2): 580 nM; viability at 24 h, 1 µM [13]: 100%; IC50 (Leishmania donovani): 90 nM; K [12]: 6000 M⁻¹ s⁻¹; IC50 (Trypanosoma cruzi): 7140 nM; IC50 [17]: 2320 nM; IC50 (Plasmodium falciparum): 1610 nM |
| CCOC(=O)/C=C/C(=O)[C@@H](CCc1ccccc1)NC(=O)[C@H](Cc1ccccc1)NC(=O)N1CCOCC1 | 99% | 330 nM | 62400 M⁻¹ s⁻¹ | – | 80 nM | 100% | 99% | 108000 M⁻¹ s⁻¹ | 22000 M⁻¹ s⁻¹ | 150 nM | > 2000 nM | 99% | – | inhibition [14]: Active; inhibition [15]: Active; inhibition [16]: Active |
| CCOC(=O)/C=C/[C@H](O)[C@H](CCc1ccccc1)C(=O)N[C@@H](CC(C)C)C(=O)OCc1ccccc1 | 17% | – | – | – | – | 0% | – | – | – | – | – | 2% | 5% | – |
| CCOC(=O)/C=C/[C@@H](O)[C@H](CCc1ccccc1)NC(=O)[C@H](CC(C)C)NC(=O)OCc1ccccc1 | 10% | – | – | – | – | 14% | 9% | – | – | – | – | 0% | 11% | – |
